The assay relates to RLE-6TN cells. In words: RLE-6TN cell survival under hyperoxia, viable cells by trypan blue exclusion. It is filed as cell-based, rat. Here is the method: FIG. 7. […] The cells were cultured in DMEM/F12 with 10% FBS in 21% O2 and 5% CO2 overnight. […] The viable cells are counted immediately after 72-hour hyperoxia exposure. Cell viability is assessed with trypan blue. Viable cells under specific conditions are presented as a percentage of the cell number from hyperoxia alone. Data are mean±s.d. of four independent experiments with *=P<0.05; **=P<0.01.
FIG. 8. […] In both (A) and (B), the number of viable cells under specific conditions is presented as a percentage of the cell number related to hyperoxia alone in the same experiment. Data are mean±s.d. of four independent experiments with *=P<0.05; **=P<0.01.
FIG. 10. HO-1 Upregulation is required for T3-increased RLE-6TN cell survival in hyperoxia. […] The cells were then collected for Western Blot analysis. (B) The cells were incubated in 21% O2 and 5% CO2 for 72 hours in the present of HO-1 inhibitor Tin Protoporphyrin IX(10^−6 M) tinT3 (10^−6 M). […] Cell viability is assessed with trypan blue. The number of viable cells under specific conditions is presented as a percentage of the cell number related to hyperoxia alone. Data are mean±s.d. of three independent experiments with *=P<0.05; **=P<0.01.
FIG. 11. PI3K inhibitor wortmannin blocked T3-induced cell survival in hyperoxia. […] Cell viability is assessed with trypan blue. The number of viable cells under specific conditions is presented as a percentage of the cell number related to hyperoxia alone. Data are mean±s.d. of four independent experiments with *=P<0.05; **=P<0.01.
At the end of the hyperoxia exposure period, the viable cells were counted by trypan blue dye exclusion.

For the compound `C=Cc1c2[n-]c(c1C)/C=c1\[n-]/c(c(C)c1C=C)=C\c1[n-]c(c(CCC(=O)O)c1C)C=c1[n-]/c(c(C)c1CCC(=O)O)=C\2.[Sn+4]` [Tin protoporphyrin, Tin Protoporphyrin IX], the “Effect on AT2 cell number in room air” value (21% O2 72 hours, 10^−6 M) was “had no effect on AT2 cell number in room air”. The “Effect on T3-caused increase in cell survival in hyperoxia” value (90% O2 72 hours, T3 10^−6 M, Tin Protoporphyrin 10^−6 M) is “blocked the T3-caused increase in cell survival and augmented cell death”.
For `N[C@@H](Cc1ccc(Oc2cc(I)c(O)c(I)c2)c(I)c1)C(=O)O` [rT3], the “Effect on cell survival under hyperoxia” value (90% oxygen 72 hours, 10^−6 M) is listed as “had no role in cell survival”.

The values are drawn from US12569459B2, “Compositions and methods for treating pulmonary edema or lung inflammation” (priority 2020, dated 2026).
